Legend:
ob/ob and db/db mice = details: following 8 weeks of administration; cited from earlier work
[1] = molecular target: T1, recombinant human AMPK complex 1 (containing α1β1γ1) (Homo sapiens, UniProt Q13131+Q9Y478); assay: In vitro AMPK activation assay (AMPKSAMSF), complex 1; format: biochemical; details: recombinant human AMPK complex 1 (α1β1γ1); for % Maximum AMP Activation of human AMPK Complex 1: 10-point titration expressed as % maximum AMP activation; for EC50: inflection point reflecting 50% of the maximum activation
T1 construct: made in house; host or cells: Spodoptera frugiperda Sf21 cells, baculovirus, triple infection (one virus per subunit)
T1 sequence (Q13131 whole entry): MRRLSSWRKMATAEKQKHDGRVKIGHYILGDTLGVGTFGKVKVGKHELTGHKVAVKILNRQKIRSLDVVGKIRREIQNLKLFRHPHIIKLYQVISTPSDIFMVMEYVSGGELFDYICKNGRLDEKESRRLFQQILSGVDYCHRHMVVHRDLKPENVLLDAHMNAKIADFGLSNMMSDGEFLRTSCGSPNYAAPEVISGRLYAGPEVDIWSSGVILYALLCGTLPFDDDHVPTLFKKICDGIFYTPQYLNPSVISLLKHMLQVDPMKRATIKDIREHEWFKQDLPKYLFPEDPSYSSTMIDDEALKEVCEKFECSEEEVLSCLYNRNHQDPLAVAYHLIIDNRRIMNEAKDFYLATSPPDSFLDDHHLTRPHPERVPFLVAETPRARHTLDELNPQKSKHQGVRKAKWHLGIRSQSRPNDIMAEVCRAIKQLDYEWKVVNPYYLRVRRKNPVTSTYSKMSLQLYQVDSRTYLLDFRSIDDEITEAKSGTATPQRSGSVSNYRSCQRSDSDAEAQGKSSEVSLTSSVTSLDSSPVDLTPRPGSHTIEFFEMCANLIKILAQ
T1 sequence (Q9Y478 whole entry): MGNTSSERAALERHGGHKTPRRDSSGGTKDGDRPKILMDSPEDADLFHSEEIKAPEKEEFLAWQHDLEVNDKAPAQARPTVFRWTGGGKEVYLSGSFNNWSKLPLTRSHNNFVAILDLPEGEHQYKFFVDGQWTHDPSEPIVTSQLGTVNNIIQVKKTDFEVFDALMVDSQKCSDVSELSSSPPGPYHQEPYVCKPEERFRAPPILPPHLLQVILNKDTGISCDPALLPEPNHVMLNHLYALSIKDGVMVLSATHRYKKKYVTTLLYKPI
T1 sequence (P54619 whole entry partner): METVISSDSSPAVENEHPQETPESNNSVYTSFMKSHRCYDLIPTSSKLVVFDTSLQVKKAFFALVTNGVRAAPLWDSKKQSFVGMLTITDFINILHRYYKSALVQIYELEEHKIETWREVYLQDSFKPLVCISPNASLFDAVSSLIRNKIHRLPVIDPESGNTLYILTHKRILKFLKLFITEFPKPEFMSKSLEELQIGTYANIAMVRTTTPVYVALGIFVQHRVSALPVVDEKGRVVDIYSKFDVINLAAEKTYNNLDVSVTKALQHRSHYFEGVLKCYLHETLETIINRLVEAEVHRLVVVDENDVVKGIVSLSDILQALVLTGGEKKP
Description: (§1) The recombinant human AMPK complex 1 (containing α1β1γ1) or AMPK complex 7 (containing α2β1γ1) was obtained from baculovirus expression system. Recombinant viruses were generated by cotransfection of AMPK/pBacPak9 clones with Baculogold baculovirus DNA (Pharmingen) in spodoptera frugiperda 21 cells according to the manufacturer's instructions. Each round of virus amplification was performed for 5 days in Grace's medium containing 10% serum. Virus that had been subjected to three rounds of amplification was used for all protein production procedures. To express the AMPK complex, sf21 cells were adapted to serum free medium (SF900 II, Invitrogen) by sequential dilution from serum containing stocks into SF900II medium and maintained in shaker flasks at 90 rpm at 27° C. The recombinant AMPK enzyme complex was produced by triple infection, one recombinant virus for each of the subunits, in sf21 cells under serum free conditions. Cells were infected in log phase, 1×10^6 cells/ml, at a multiplicity of infection of ˜5. Cells were harvested by centrifugation at 10,000×g for 15 minutes after 72 hours of infection with viruses. The insect cell pellet from 2 liters of culture was resuspended in 50 ml lysis buffer (20 mM Tris-HCl, 50 mM NaCl, 50 mM NaF, 30 mM Na PPi, 0.25 M sucrose, 10 mM ZnCl2, 2 mM DTT, 0.4 mg/ml digitonin) and subjected to two cycles of freeze-thaw lysis in a dry-ice ethanol bath. Insoluble material was removed by centrifugation at 10,000×g and the supernatant was fractionated with use of polyethylene glycol (PEG). The protein fraction precipitating between 2.5 and 6% PEG was used for further purification using a Blue-Sepharose step (Zhou et al, J. Clin. Invest. 108, 1167-1174, 2001).
(§2) The in vitro AMPK activation assay is performed in a volume of 30 μl in a 384-well plate. Enzyme reactions were assembled in the microtiter plate by adding 15 μl of 2× enzyme in assay buffer (20 mM HEPES, pH 7.3, 5 mM MgCl2, 3 mM DTT, 0.01% Brij 35 and CamK Kinase, to activate AMPK) to wells which contained either DMSO or compound. The reaction was initiated with the addition of 15 μl 2× substrate mixture containing 200 μM ATP, and 3.0 μM fluorescently labeled SAMS (5-FAM-HMRSAMSGLHLVKRR-COOH) in assay buffer. After 45-minute incubation at 25° C., the reaction was stopped by the addition of 70 μl stop buffer (100 mM HEPES, pH 7.3, 40 mM EDTA, 0.015% Brij 35). Phosphorylated 5-FAM SAMS product is assessed using a Caliper EZ Reader LabChip microfluidics reader. Product conversion is determined by calculating the peak heights of the substrate and product and reporting the product/(product+substrate) peak ratio. The 10-point titration data were expressed as % maximum AMP activation. The results were plotted using 4 parameter fit and the inflection point reflecting 50% of the maximum activation was reported as the EC50.

[2] = molecular target: T2, recombinant human AMPK complex 7 (containing α2β1γ1) (Homo sapiens, UniProt P54646+Q9Y478); assay: In vitro AMPK activation assay (AMPKSAMSF), complex 7; format: biochemical; details: recombinant human AMPK complex 7 (α2β1γ1); for Emax: 10-point titration expressed as % maximum AMP activation; for EC50: inflection point reflecting 50% of the maximum activation
T2 construct: made in house; host or cells: Spodoptera frugiperda Sf21 cells, baculovirus, triple infection (one virus per subunit)
T2 sequence (P54646 whole entry): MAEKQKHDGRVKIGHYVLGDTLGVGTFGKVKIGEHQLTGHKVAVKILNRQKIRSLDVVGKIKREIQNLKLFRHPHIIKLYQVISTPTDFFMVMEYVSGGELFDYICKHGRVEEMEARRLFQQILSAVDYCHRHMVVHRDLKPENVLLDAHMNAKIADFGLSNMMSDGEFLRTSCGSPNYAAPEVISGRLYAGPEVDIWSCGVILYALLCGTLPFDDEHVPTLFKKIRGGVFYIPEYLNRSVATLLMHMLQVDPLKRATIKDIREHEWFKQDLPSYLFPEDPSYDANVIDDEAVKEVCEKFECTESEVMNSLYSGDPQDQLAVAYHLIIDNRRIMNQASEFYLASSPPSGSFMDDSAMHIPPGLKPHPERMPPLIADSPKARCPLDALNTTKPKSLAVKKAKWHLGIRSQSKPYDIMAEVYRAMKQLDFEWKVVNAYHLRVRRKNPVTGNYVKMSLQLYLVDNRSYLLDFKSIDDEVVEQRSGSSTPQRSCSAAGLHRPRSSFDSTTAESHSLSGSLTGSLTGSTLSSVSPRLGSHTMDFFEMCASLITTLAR
T2 sequence (Q9Y478 whole entry): as the sequence (Q9Y478 whole entry) above
T2 sequence (P54619 whole entry partner): as the sequence (P54619 whole entry partner) above
Description: as §1, §2

Row | SMILES | blood glucose reduction (ob/ob and db/db mice) | % Maximum AMP Activation of human AMPK Complex 1 [1] | EC50 [1] | Emax [2] | EC50 [2]
1 | NC(=O)c1ncn([C@@H]2O[C@H](CO)[C@@H](O)[C@H]2O)c1N [AICAR] | 35% |  |  |  | 
2 | O[C@@H]1CO[C@H]2[C@@H]1OC[C@H]2Oc1nc2c(F)c(-c3ccc(-c4ccccc4)cc3)c(F)cc2[nH]1 [Example 1, (3R,3aR,6R,6aR)-6-((5-([1,1′-biphenyl]-4-yl)-4,6-difluoro-1H-benzo[d]imidazol-2-yl)oxy)hexahydrofuro[3,2-b]furan-3-ol] |  | 636% | 51 nM |  | 
3 | CS(=O)(=O)c1ccc(-c2ccc(-c3cc4nc(O[C@@H]5CO[C@H]6[C@@H]5OC[C@H]6O)[nH]c4cc3Cl)cc2)cc1 [Example 6] |  | 367% | 14 nM |  | 
4 | O[C@@H]1CO[C@H]2[C@@H]1OC[C@H]2Oc1nc2cc(-c3ccc(-c4ccccc4)cc3)c(Cl)cc2[nH]1 [Example 8] |  | 368% | 32 nM |  | 
5 | CC(C)(O)c1ccc(-c2ccc(-c3c(F)cc4[nH]c(O[C@@H]5CO[C@H]6[C@@H]5OC[C@H]6O)nc4c3F)cc2)cc1 [Example 15] |  | 416% | 18 nM |  | 
6 | OCc1ccc(-c2ccc(-c3c(F)cc4[nH]c(O[C@H]5COC6C5OC[C@@H]6O)nc4c3F)cc2)cc1 (stereo partly drawn) [Example 18, (3S,6S)-6-((4,6-difluoro-5-(4′-(hydroxymethyl)-[1,1′-biphenyl]-4-yl)-1H-benzo[d]imidazol-2-yl)oxy)hexahydrofuro[3,2-b]furan-3-ol] |  | 314% | 6 nM |  | 
7 | O=C(c1ccc(-c2ccc(-c3c(F)cc4[nH]c(O[C@H]5COC6C5OC[C@@H]6O)nc4c3F)cc2)cc1)N1CC[C@@H](O)C1 (stereo partly drawn) [Example 19, (4′-(4,6-difluoro-2-(((3S,6S)-6-hydroxyhexahydrofuro[3,2-b]furan-3-yl)oxy)-1H-benzo[d]imidazol-5-yl)-[1,1′-biphenyl]-4-yl)((R)-3-hydroxypyrrolidin-1-yl)methanone] |  | 232% | 35 nM |  | 
8 | O=C(O)C1CC1c1ccc(-c2ccc(-c3c(F)cc4[nH]c(O[C@@H]5CO[C@H]6[C@@H]5OC[C@H]6O)nc4c3F)cc2)cc1 (stereo partly drawn) [Example 26] |  |  |  | 350% | 5 nM
9 | CC(CO)(CO)c1ccc(-c2ccc(-c3c(F)cc4[nH]c(O[C@@H]5CO[C@H]6[C@@H]5OC[C@H]6O)nc4c3F)cc2)cc1 [Example 33] |  |  |  | 316% | 5 nM
10 | O[C@@H]1CO[C@H]2[C@@H]1OC[C@H]2Oc1nc2c(F)c(-c3ccc(-c4ccc(C5CNCCO5)cc4)cc3)c(F)cc2[nH]1 (stereo partly drawn) [Example 34] |  |  |  | 263% | 5 nM
11 | O=C1NCCC1c1ccc(-c2ccc(-c3c(F)cc4[nH]c(O[C@@H]5CO[C@H]6[C@@H]5OC[C@H]6O)nc4c3F)cc2)cc1 (stereo partly drawn) [Example 40] |  |  |  | 364% | 5 nM
12 | Oc1ccnc(-c2ccc(-c3ccc(-c4c(F)cc5[nH]c(O[C@@H]6CO[C@H]7[C@@H]6OC[C@H]7O)nc5c4F)cc3)cc2)n1 [Example 41] |  |  |  | 380% | 3 nM
13 | O[C@@H]1CO[C@H]2[C@@H]1OC[C@H]2Oc1nc2c(F)c(-c3ccc(-c4ccc(-n5ccnn5)cc4)cc3)c(F)cc2[nH]1 [Example 43] |  |  |  | 341% | 3 nM
14 | CNC(=O)c1ccc(-c2ccc(-c3c(F)cc4[nH]c(O[C@@H]5CO[C@H]6[C@@H]5OC[C@H]6O)nc4c3F)cc2)cc1 [Example 46] |  |  |  | 364% | 2 nM
15 | N=c1nc(N)[nH]n1-c1ccc(-c2ccc(-c3c(F)cc4[nH]c(O[C@@H]5CO[C@H]6[C@@H]5OC[C@H]6O)nc4c3F)cc2)cc1 [Example 47] |  |  |  | 348% | 4 nM
16 | O=C(O)C1CC1c1ccc(-c2ccc(-c3cc4nc(O[C@@H]5CO[C@H]6[C@@H]5OC[C@H]6O)[nH]c4cc3Cl)cc2)cc1 (stereo partly drawn) [Example 57] |  |  |  | 356% | 8 nM
17 | O[C@@H]1CO[C@H]2[C@@H]1OC[C@H]2Oc1nc2cc(-c3ccc(-c4ccc(C5CNCCO5)cc4)cc3)c(Cl)cc2[nH]1 (stereo partly drawn) [Example 67] |  |  |  | 324% | 4 nM
18 | Oc1ccnc(-c2ccc(-c3ccc(-c4cc5nc(O[C@@H]6CO[C@H]7[C@@H]6OC[C@H]7O)[nH]c5cc4Cl)cc3)cc2)n1 [Example 68] |  |  |  | 344% | 3 nM
19 | O=c1ncn(-c2ccc(-c3ccc(-c4cc5nc(O[C@@H]6CO[C@H]7[C@@H]6OC[C@H]7O)[nH]c5cc4Cl)cc3)cc2)[nH]1 [Example 69] |  |  |  | 359% | 2 nM
20 | CC(CO)(CO)c1ccc(-c2ccc(-c3cc4nc(O[C@@H]5CO[C@H]6[C@@H]5OC[C@H]6O)[nH]c4cc3Cl)cc2)cc1 [Example 71] |  |  |  | 352% | 5 nM
21 | O[C@@H]1CO[C@H]2[C@@H]1OC[C@H]2Oc1nc2cc(-c3ccc(-c4ccc(-n5ccnn5)cc4)cc3)c(Cl)cc2[nH]1 [Example 73] |  |  |  | 384% | 7 nM
22 | O[C@@H]1CO[C@H]2[C@@H]1OC[C@H]2Oc1nc2cc(-c3ccc(-c4ccc(-n5cccn5)cc4)cc3)c(Cl)cc2[nH]1 [Example 74] |  |  |  | 369% | 16 nM
23 | CNC(=O)c1ccc(-c2ccc(-c3cc4nc(O[C@@H]5CO[C@H]6[C@@H]5OC[C@H]6O)[nH]c4cc3Cl)cc2)cc1 [Example 76] |  |  |  | 386% | 5 nM
24 | N=c1nc(N)[nH]n1-c1ccc(-c2ccc(-c3cc4nc(O[C@@H]5CO[C@H]6[C@@H]5OC[C@H]6O)[nH]c4cc3Cl)cc2)cc1 [Example 77] |  |  |  | 368% | 8 nM
25 | O=S(=O)(c1ccc(-c2ccc(-c3cc4nc(O[C@@H]5CO[C@H]6[C@@H]5OC[C@H]6O)[nH]c4cc3Cl)cc2)cc1)C1CCNCC1 [Example 79] |  |  |  | 381% | 9 nM
26 | O=C1NCCC1c1ccc(-c2ccc(-c3cc4nc(O[C@@H]5CO[C@H]6[C@@H]5OC[C@H]6O)[nH]c4cc3Cl)cc2)cc1 (stereo partly drawn) [Example 83] |  |  |  | 365% | 5 nM

— patent US9556193B2, “Benzimidazole hexahydrofuro[3,2-b]furan derivatives” (Merck Sharp & Dohme Corp., priority 2012, dated 2017)
